BigSolDB 2.1

COc1ccc(C(=O)O)cc1
solubility (mole fraction)
Settings	283.15 K	288.15 K	293.15 K	298.15 K	303.15 K	308.15 K	313.15 K	318.15 K	323.15 K	328.15 K
in 2-butanone	0.0107	0.0128	0.0149	0.0169	0.0198	0.023	0.0266	0.0298	0.0343	0.0394
in THF	0.0483	0.0518	0.0562	0.0621	0.0671	0.0731	0.078	0.085	0.0923	0.0991
in acetone	0.0129	0.0153	0.0173	0.0197	0.0224	0.026	0.0298	0.032	0.0344	0.0368
in cyclohexanone	0.0187	0.0203	0.022	0.025	0.0292	0.034	0.0397	0.0449	0.0507	0.059
in ethyl formate	0.00442	0.00508	0.00606	0.00738	0.00889	0.0114	0.0135	0.0152	0.0178	0.0195
in ethylene glycol	0.0022	0.00292	0.0038	0.0046	0.00546	0.00649	0.00768	0.00885	0.0105	0.0126
in isobutanol	0.00435	0.00548	0.00691	0.00889	0.0116	0.0143	0.0178	0.0206	0.025	0.0288
in isopropyl acetate	0.00637	0.00732	0.00833	0.00955	0.0116	0.0135	0.0156	0.0179	0.021	0.0246
in n-butanol	0.00647	0.0077	0.00946	0.011	0.0133	0.0158	0.0186	0.0218	0.0255	0.0302
in n-butyl acetate	0.00629	0.00719	0.00867	0.0106	0.0118	0.0136	0.0158	0.0178	0.021	0.0244
in n-pentanol	0.00696	0.00853	0.0101	0.012	0.014	0.0169	0.0197	0.0234	0.0272	0.0313
in n-propyl acetate	0.00732	0.00802	0.0089	0.0103	0.0118	0.0136	0.0155	0.0182	0.0209	0.0237
in sec-butanol	0.00623	0.00789	0.0101	0.0121	0.0149	0.0182	0.0219	0.0274	0.0317	0.0362
in toluene	0.00062	0.00086	0.0012	0.00152	0.00196	0.00252	0.00301	0.00369	0.0044	0.0054
